Key:
Stability in rat plasma = settings: after 4 hours, 37° C.
[1] = Stability in human plasma; settings: after 4 hours, 37° C.
[2] = Stability to Phase I metabolism in rat S9 liver fraction; settings: after 90 minutes, 37° C.
Description: (§1) Test compounds were incubated in rat and human liver S9 fraction at 37° C. up to 90 minutes in order to evaluate their stability to Phase I metabolism by hepatic enzymes. Each test compound was incubated at μM concentration (50 μM when the samples were analysed by UV/HPLC, 1 or 2 μM when the samples were analysed by LC-MS/MS) with S9 fraction (protein content 2 mg/m L) in 100 mM phosphate buffer (pH 7.4), 3.3 mM MgCl2 and 1.3 mM NADPH for 0, 10, 30, 60 and 90 minutes at 37° C. in a thermostated oscillating bath. The reaction was stopped placing samples on ice bath and adding acidified acetonitrile. After centrifugation (10 minutes at 14000 rpm) an aliquot of the supernatant was diluted with water, filtered with 0.45 μm regenerated cellulose syringe filters and injected in HPLC-UV or in LC-MS/MS. The percentage of the remaining amount at the various incubation times with respect to the initial amount were calculated.

[3] = Stability to Phase I metabolism in human S9 liver fraction; settings: after 90 minutes, 37° C.
Description: as §1

recombinant human HDAC6 = recombinant human HDAC6 (Homo sapiens (Human), UniProt Q9UBN7); assay: Enzymatic screening, HDAC6 inhibition (fluorogenic FdL_G substrate); assay type: biochemical
How it was run: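 Enzyme was preincubated with compound (8 doses, triplicate, 1% DMSO) in 25 mM Tris-HCl pH 8, 130 mM NaCl, 0.05% Tween-20, 10% glycerol, with BSA. A FLUOR DE LYS-Green substrate was then added, and fluorescence was read after developer plus 2 μM TSA.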

recombinant human HDAC1 = recombinant human HDAC1 (Homo sapiens (Human), UniProt Q13547); assay: Enzymatic screening, HDAC1 inhibition (fluorogenic FdL_G substrate); assay type: biochemical
How it was run: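 Recombinant human HDAC1 inhibition was measured fluorometrically using the FLUOR DE LYS-Green (FdL_G) substrate. Compounds at 8 doses (1% DMSO final) in Tris-HCl pH 8 buffer with NaCl, Tween-20 and glycerol were preincubated in triplicate with enzyme and 1 mg/mL BSA, then given substrate. Developer I plus 2 μM TSA was added, and fluorescence read after 25 minutes in the dark.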

recombinant human HDAC1, sequence (Q13547 whole entry): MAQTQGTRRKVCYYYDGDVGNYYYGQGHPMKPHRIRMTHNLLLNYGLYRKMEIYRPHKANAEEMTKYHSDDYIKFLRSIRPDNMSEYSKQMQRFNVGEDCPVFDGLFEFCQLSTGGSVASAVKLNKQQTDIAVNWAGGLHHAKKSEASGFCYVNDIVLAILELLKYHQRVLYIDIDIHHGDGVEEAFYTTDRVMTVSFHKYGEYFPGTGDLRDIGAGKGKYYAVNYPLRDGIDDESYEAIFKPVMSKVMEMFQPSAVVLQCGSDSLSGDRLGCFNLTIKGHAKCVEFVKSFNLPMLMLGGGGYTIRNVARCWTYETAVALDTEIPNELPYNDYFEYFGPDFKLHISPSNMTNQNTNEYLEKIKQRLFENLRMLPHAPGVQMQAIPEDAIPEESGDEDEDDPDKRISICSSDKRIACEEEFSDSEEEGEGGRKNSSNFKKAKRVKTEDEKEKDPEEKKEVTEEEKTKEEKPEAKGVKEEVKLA
recombinant human HDAC6, sequence (Q9UBN7 whole entry): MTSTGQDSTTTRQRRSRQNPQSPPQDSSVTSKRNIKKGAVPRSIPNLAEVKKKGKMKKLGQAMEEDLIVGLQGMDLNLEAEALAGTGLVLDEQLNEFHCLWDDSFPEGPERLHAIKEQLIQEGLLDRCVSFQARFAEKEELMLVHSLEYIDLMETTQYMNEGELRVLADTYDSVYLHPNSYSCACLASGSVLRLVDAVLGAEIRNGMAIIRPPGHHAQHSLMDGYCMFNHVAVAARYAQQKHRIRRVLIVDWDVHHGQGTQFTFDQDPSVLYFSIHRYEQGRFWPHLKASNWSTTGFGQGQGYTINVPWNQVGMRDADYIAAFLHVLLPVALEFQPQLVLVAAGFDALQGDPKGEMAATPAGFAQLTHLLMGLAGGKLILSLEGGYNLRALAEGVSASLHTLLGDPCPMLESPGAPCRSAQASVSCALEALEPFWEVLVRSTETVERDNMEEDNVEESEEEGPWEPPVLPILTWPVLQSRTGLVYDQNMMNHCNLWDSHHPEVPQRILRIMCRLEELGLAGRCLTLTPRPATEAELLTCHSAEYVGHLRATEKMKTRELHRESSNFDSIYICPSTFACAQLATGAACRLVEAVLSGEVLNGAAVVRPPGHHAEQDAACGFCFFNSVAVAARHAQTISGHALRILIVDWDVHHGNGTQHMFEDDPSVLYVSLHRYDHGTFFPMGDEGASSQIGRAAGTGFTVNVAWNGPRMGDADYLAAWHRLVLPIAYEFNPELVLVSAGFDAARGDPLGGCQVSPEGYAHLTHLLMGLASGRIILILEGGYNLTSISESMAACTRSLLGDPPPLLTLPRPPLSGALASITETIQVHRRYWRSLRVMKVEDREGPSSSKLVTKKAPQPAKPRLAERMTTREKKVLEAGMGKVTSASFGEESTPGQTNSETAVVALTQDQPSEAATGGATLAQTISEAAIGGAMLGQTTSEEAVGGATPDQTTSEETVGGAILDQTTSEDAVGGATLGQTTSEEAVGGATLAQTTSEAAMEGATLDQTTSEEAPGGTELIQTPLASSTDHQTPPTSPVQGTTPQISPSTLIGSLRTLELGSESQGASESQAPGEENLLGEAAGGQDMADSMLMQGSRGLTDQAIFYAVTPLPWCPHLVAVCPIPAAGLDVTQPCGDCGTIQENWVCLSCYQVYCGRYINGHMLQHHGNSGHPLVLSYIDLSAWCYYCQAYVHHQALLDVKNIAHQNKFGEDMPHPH

Structure (SMILES)	residual percentage in RAT PLASMA (Stability in rat plasma)	residual percentage in HUMAN PLASMA [1]	residual percentage in RAT S9 FRACTION [2]	residual percentage in HUMAN S9 FRACTION [3]	IC50 (recombinant human HDAC6)	IC50 (recombinant human HDAC1)
O=C(Nc1cccc(-c2cn(Cc3c(F)cc(-c4nnc(C(F)F)o4)cc3F)nn2)c1)N1CCOCC1 [compound 78, N-(3-(1-(4-(5-(difluoromethyl)-1,3,4-oxadiazol-2-yl)-2,6-difluorobenzyl)-1H-1,2,3-triazol-4-yl)phenyl)morpholine-4-carboxamide]		62%	78%	94%	32 nM	> 200000 nM
CNc1ccc2cc(-c3nnn(Cc4ccc(-c5nnc(C(F)F)o5)c(F)c4F)n3)ccc2n1 [compound 407, 6-(2-(4-(5-(difluoromethyl)-1,3,4-oxadiazol-2-yl)-2,3-difluorobenzyl)-2H-tetrazol-5-yl)-N-methylquinolin-2-amine]					136 nM	1e+06 nM
Fc1cc(-c2nnc(C(F)F)o2)cnc1Cn1nnc(-c2cccc(-c3nc4c([nH]3)CCNC4)c2)n1 [compound 353, 2-(difluoromethyl)-5-[5-fluoro-6-[[5-[3-(4,5,6,7-tetrahydro-1H-imidazo[4,5-c]pyridin-2-yl)phenyl]tetrazol-2-yl]methyl]pyridin-3-yl]-1,3,4-oxadiazole]					42 nM	> 1e+06 nM
[2H]C([2H])(c1ccc(-c2nnc(C(F)F)o2)cc1F)n1cc(-c2ccc3nc(N)sc3c2)nn1 [compound 382, 6-[1-[dideuterio-[4-[5-(difluoromethyl)-1,3,4-oxadiazol-2-yl]-2-fluorophenyl]methyl]triazol-4-yl]-1,3-benzothiazol-2-amine]					18 nM	> 1e+06 nM
FC(F)c1nnc(-c2ccc(Cn3nnc(-c4cccc(-c5ccccc5)c4)n3)cc2)o1 [compound 246, 2-(4-((5-([1,1′-biphenyl]-3-yl)-2H-tetrazol-2-yl)methyl)phenyl)-5-(difluoromethyl)-1,3,4-oxadiazole]					266 nM	> 200000 nM
Nc1ccc(-c2noc(Cc3ccc(-c4nnc(C(F)F)o4)c(F)c3)n2)cc1 [compound 408, 4-(5-(4-(5-(difluoromethyl)-1,3,4-oxadiazol-2-yl)-3-fluorobenzyl)-1,2,4-oxadiazol-3-yl)aniline]					80 nM	> 1e+06 nM
FC(F)c1nnc(-c2ccc(Cn3nnc(C4(c5ccccc5)CC4)n3)cc2)o1 [compound 256, 2-(difluoromethyl)-5-(4-((5-(1-phenylcyclopropyl)-2H-tetrazol-2-yl)methyl)phenyl)-1,3,4-oxadiazole]					393 nM	> 200000 nM
CC(C)(C)OC(=O)N1CCC2(CC1)Nc1ccc(-c3cn(Cc4ccc(-c5nnc(C(F)F)o5)cc4)nn3)cc1NC2=O [compound 279, tert-butyl 6′-(1-(4-(5-(difluoromethyl)-1,3,4-oxadiazol-2-yl)benzyl)-1H-1,2,3-triazol-4-yl)-3′-oxo-3′,4′-dihydro-1′H-spiro[piperidine-4,2′-quinoxaline]-1-carboxylate]					286 nM	> 200000 nM
Cn1c(N)nc2cc(-c3nnn(Cc4ccc(-c5nnc(C(F)F)o5)c(F)c4)n3)ccc21 [compound 373, 5-[2-[[4-[5-(difluoromethyl)-1,3,4-oxadiazol-2-yl]-3-fluorophenyl]methyl]tetrazol-5-yl]-1-methylbenzimidazol-2-amine]					26 nM	> 1e+06 nM
CCC[C@@H](c1ccc(-c2nnc(C(F)F)o2)cc1)n1cc(-c2cccc(NC(=O)N3CCOCC3)c2)nn1 (stereo in doubt) [compound 205, N-(3-(1-(1-(4-(5-(difluoromethyl)-1,3,4-oxadiazol-2-yl)phenyl)butyl)-1H-1,2,3-triazol-4-yl)phenyl)morpholine-4-carboxamide]					122 nM	> 200000 nM
Nc1ccc(-n2cc(Cc3ccc(-c4nnc(C(F)F)o4)cc3)nn2)cc1 [compound 315, 4-[4-[[4-[5-(difluoromethyl)-1,3,4-oxadiazol-2-yl]phenyl]methyl]triazol-1-yl]aniline]					668 nM	> 1e+06 nM

Continued, values first:

residual percentage in RAT PLASMA (Stability in rat plasma)	residual percentage in HUMAN PLASMA [1]	residual percentage in RAT S9 FRACTION [2]	residual percentage in HUMAN S9 FRACTION [3]	IC50 (recombinant human HDAC6)	IC50 (recombinant human HDAC1)	Structure (SMILES)
57%	91%	76%	98%			C[C@@H](c1ccc(-c2nnc(C(F)F)o2)cc1)n1cc(-c2ccc(N)nc2)nn1 [compound 255, (S)-5-(1-(1-(4-(5-(difluoromethyl)-1,3,4-oxadiazol-2-yl)phenyl)ethyl)-1H-1,2,3-triazol-4-yl)pyridin-2-amine]
78%	86%	69%	78%			C[C@H](c1ccc(-c2nnc(C(F)F)o2)cc1)n1cc(-c2ccc(N)nc2)nn1 [compound 106, (R)-5-(1-(1-(4-(5-(difluoromethyl)-1,3,4-oxadiazol-2-yl)phenyl)ethyl)-1H-1,2,3-triazol-4-yl)pyridin-2-amine]
	92%	66%	70%	54 nM	> 200000 nM	COc1ncc(NCc2ccc(-c3cn(Cc4ccc(-c5nnc(C(F)F)o5)cc4)nn3)cc2)cc1C(N)=O [compound 138, 5-((4-(1-(4-(5-(difluoromethyl)-1,3,4-oxadiazol-2-yl)benzyl)-1H-1,2,3-triazol-4-yl)benzyl)amino)-2-methoxynicotinamide]
68%	62%	86%	70%			O=C1NCc2ccc(-c3nnn(Cc4c(F)cc(-c5nnc(C(F)F)o5)cc4F)n3)cc21 [compound 57, 6-(2-(4-(5-(difluoromethyl)-1,3,4-oxadiazol-2-yl)-2,6-difluorobenzyl)-2H-tetrazol-5-yl)isoindolin-1-one]
				46 nM	> 200000 nM	O=C1Nc2cc(-c3cn(Cc4ccc(-c5nnc(C(F)F)o5)cn4)nn3)ccc2C12CCCC2 [compound 123, 6′-(1-((5-(5-(difluoromethyl)-1,3,4-oxadiazol-2-yl)pyridin-2-yl)methyl)-1H-1,2,3-triazol-4-yl)spiro[cyclopentane-1,3′-indolin]-2′-one]
				49 nM	47900 nM	Nc1ccc(-c2cn(C(CCN3CCCC3)c3ccc(-c4nnc(C(F)F)o4)cc3)nn2)cn1 (centres unmarked) [compound 323, 5-(1-(1-(4-(5-(difluoromethyl)-1,3,4-oxadiazol-2-yl)phenyl)-3-(pyrrolidin-1-yl)propyl)-1H-1,2,3-triazol-4-yl)pyridin-2-amine]
				29 nM	> 1e+06 nM	O=C(Nc1cccc(-c2cn(Cc3cc(F)c(-c4nnc(C(F)F)o4)cc3F)nn2)c1)N1CCOCC1 [compound 363, N-[3-[1-[[4-[5-(difluoromethyl)-1,3,4-oxadiazol-2-yl]-2,5-difluorophenyl]methyl]triazol-4-yl]phenyl]morpholine-4-carboxamide]
				234 nM	> 200000 nM	Nc1ccc(-c2noc(C(F)(F)c3ccc(-c4nnc(C(F)F)o4)cc3)n2)cn1 [Compd. 243, 5-(5-((4-(5-(difluoromethyl)-1,3,4-oxadiazol-2-yl)phenyl)difluoromethyl)-1,2,4-oxadiazol-3-yl)pyridin-2-amine]
